{
  "source": "the NIST ThermoML archive (doi:10.1016/j.jct.2019.01.021)",
  "assay": "Molar enthalpy of transition or fusion",
  "note": "± gives the expanded uncertainty stated by the source.",
  "data": [
    {"smiles": "N.NS(=O)(=O)O", "note": "[ammonium sulfamate]", "values": [
      {"measurement": "Molar enthalpy of transition or fusion", "setting": "Crystal 1, DSC", "result": "3.87 ± 0.191", "unit": "kcal/mol"},
      {"measurement": "Molar enthalpy of transition or fusion", "setting": "Crystal 2, Adiabatic calorimetry", "result": "0.00287 ± 0.00191", "unit": "kcal/mol"}
    ]}
  ]
}
